The structures appear in SMILES notation.

The target of this test is T1, NMDA receptor composed of four subunits including 2 sets of heterodimers of NR1 and NR2B (Homo sapiens, UniProt Q13224).
T1 construct: host or cells: HEK293 (tetracycline-induced expression)
T1 sequence (Q13224 27-1484, other chains not shown): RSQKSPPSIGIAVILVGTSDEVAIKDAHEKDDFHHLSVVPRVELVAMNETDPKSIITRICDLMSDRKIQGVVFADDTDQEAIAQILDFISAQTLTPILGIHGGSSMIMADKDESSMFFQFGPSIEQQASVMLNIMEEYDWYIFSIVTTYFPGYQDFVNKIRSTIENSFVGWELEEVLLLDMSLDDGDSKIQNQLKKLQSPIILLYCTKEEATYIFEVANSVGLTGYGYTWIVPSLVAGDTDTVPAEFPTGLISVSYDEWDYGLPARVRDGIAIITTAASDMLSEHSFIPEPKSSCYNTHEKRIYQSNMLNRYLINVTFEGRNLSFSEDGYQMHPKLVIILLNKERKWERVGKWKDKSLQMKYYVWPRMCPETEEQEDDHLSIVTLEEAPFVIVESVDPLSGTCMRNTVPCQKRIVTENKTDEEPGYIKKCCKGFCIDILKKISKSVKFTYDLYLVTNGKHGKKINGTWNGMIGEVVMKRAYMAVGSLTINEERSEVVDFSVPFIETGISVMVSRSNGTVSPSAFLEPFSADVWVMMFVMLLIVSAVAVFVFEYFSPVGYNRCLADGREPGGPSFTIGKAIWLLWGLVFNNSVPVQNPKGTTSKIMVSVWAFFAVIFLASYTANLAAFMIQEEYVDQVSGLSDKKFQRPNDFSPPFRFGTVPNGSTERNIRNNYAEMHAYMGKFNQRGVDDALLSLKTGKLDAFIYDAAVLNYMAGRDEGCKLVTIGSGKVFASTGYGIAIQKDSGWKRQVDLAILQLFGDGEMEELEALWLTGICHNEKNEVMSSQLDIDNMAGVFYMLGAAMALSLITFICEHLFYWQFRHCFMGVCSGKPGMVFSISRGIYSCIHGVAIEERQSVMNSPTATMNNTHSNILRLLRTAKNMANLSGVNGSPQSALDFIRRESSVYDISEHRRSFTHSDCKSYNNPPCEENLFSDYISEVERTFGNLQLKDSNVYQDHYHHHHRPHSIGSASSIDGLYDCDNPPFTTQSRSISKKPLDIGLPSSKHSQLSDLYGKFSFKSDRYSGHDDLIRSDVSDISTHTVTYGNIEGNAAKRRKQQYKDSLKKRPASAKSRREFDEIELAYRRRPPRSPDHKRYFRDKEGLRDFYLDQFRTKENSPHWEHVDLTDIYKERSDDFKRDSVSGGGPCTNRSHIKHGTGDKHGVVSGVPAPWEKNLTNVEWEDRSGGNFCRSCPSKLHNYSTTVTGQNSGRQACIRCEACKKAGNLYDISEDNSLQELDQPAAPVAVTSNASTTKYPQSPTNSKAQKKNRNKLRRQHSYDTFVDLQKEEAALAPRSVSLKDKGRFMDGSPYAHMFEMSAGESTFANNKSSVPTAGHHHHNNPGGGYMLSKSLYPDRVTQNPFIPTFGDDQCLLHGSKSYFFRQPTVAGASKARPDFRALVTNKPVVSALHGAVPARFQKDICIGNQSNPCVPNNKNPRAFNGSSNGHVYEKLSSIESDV
Description: NR2B Ca2+ influx assay (FLIPR, Fluo-4) in HEK293 cells expressing human GRIN1 and GRIN2B. It counts as cell-based. To be noted: HEK293, 10 μM final compound concentration, glutamic acid/glycine-induced Ca2+ influx, read-out: inhibitory rate (10 μM compound concentration). The procedure, abridged: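 Tetracycline-induced (2 h) HEK293 cells expressing human GRIN1/GRIN2B, Fluo-4-loaded, were preincubated 15 min at room temperature with compound at 10 μM final. FLIPR recorded Ca2+ influx every 3 s for 5 min after glutamate/glycine addition (30 μM in added buffer); inhibition from cumulative fluorescence relative to agonist-free wells.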
Consider `O=C(NCc1c(C2CC2)ccc2[nH]nnc12)c1ccc(OC(F)F)c(F)c1` [Example 212, N-((5-cyclopropyl-1H-benzotriazol-4-yl)methyl)-4-(difluoromethoxy)-3-fluorobenzamide], for which the inhibition at 10 µM stood at 93%.
As for `COc1ccc2[nH]nnc2c1CNC(=O)c1ccc(OC(F)(F)F)cc1` [Example 213, N-((5-methoxy-1H-benzotriazol-4-yl)methyl)-4-(trifluoromethoxy)-benzamide], the figure is 98%; as for `COc1ccc2nc(C)n(C)c2c1CNC(=O)c1cc(F)c(OC)c(F)c1` [Example 214, 3,5-difluoro-4-methoxy-N-((6-methoxy-1,2-dimethyl-lH-benzimidazol-7-yl)methyl)benzamide], 86%.
Under `COc1ccc2ncn(C)c2c1CNC(=O)Nc1cccc(C)c1` [Example 215, 1-((6-methoxy-1-methyl-1H-benzimidazol-7-yl)methyl)-3-(3-methylphenyl)urea] stands 53%; under `COc1ccc2ncn(C)c2c1CNC(=O)Nc1cccc(F)c1` [Example 216, 1-(3-fluorophenyl)-3-((6-methoxy-l-methyl-1H-benzimidazol-7-yl)methyl)urea], 78%; under `COc1ccc2ncn(C)c2c1CNC(=O)Nc1ccc(F)c(C)c1` [Example 217, 1-(4-fluoro-3-methylphenyl)-3-((6-methoxy-1-methyl-1H-benzimidazol-7-yl)methyl)urea], 82%.
On to `COc1ccc2ncn(C)c2c1CNC(=O)Nc1ccc(C)c(F)c1` [Example 218, 1-(3-fluoro-4-methylphenyl)-3-((6-methoxy-1-methyl-1H-benzimidazol-7-yl)methyl)urea], for which the inhibition at 10 µM came out at 93%.
Under `COc1ccc2ncn(C)c2c1CNC(=O)Nc1cccc(Cl)c1` [Example 219, 1-(3-chlorophenyl)-3-((6-methoxy-1-methyl-1H-benzimidazol-7-yl)methyl)urea] stands 72%; under `COc1ccc2ncn(C)c2c1CNC(=O)Nc1cc(F)c(F)c(F)c1` [Example 220, 1-((6-methoxy-1-methyl-lH-benzimidazol-7-yl)methyl)-3-(3,4,5-trifluorophenyl)urea], 87%; under `COc1ccc2ncn(C)c2c1CNC(=O)Nc1ccc(OC(F)F)cc1` [Example 221, 1-(4-(difluoromethoxy)-phenyl)-3-((6-methoxy-1-methyl-lH-benzimidazol-7-yl)methyl)urea], 88%.
Under `COc1ccc2ncn(C)c2c1CNC(=O)Nc1cccc(C(F)(F)F)c1` [Example 222, 1-((6-methoxy-1-methyl-lH-benzimidazol-7-yl)methyl)-3-(3-(trifluoromethyl)-phenyl)urea] stands 55%; under `COc1ccc2ncn(C)c2c1CNC(=O)Nc1ccc(OC(F)(F)F)cc1` [Example 223, 1-((6-methoxy-1-methyl-1H-benzimidazol-7-yl)methyl)-3-(4-(trifluoromethoxy)-phenyl)urea], 83%; under `COc1ccc2ncn(C)c2c1CNC(=O)Nc1ccc(F)cc1` [Example 224, 1-(4-fluorophenyl)-3-((6-methoxy-1-methyl-1H-benzimidazol-7-yl)methyl)urea], 81%.
Take `COc1ccc(NC(=O)NCc2c(OC)ccc3ncn(C)c23)cc1F` [Example 225, 1-(3-fluoro-4-methoxyphenyl)-3-((6-methoxy-1-methyl-1H-benzimidazol-7-yl)methyl)urea]: the inhibition at 10 µM worked out at 84%.
As for `O=C(NCc1c(C2CC2)ccc2[nH]nnc12)c1cnc(OC(F)F)c(F)c1` [Example 226, N-((5-cyclopropyl-1H-benzotriazol-4-yl)methyl)-6-(difluoromethoxy)-5-fluoronicotinamide], the inhibition at 10 µM was determined as 94%.
Under `COc1ccc2[nH]nnc2c1CNC(=O)c1ccc(OC(F)(F)F)c(F)c1` [Example 227, 3-fluoro-N-((5-methoxy-1H-benzotriazol-4-yl)methyl)-4-(trifluoromethoxy)-benzamide] stands 97%; under `COc1ccc2nc(C)n(C)c2c1CNC(=O)c1csc(Cl)c1` [Example 228, 5-chloro-N-((6-methoxy-1,2-dimethyl-1H-benzimidazol-7-yl)methyl)thiophene-3-carboxamide], 70%; under `COc1ccc2nc(C)n(C)c2c1CNC(=O)c1ccc(Cl)s1` [Example 229, 5-chloro-N-((6-methoxy-1,2-dimethyl-1H-benzimidazol-7-yl)methyl)thiophene-2-carboxamide], 62%.
As for `COc1ccc2nc(C)n(C)c2c1CNC(=O)c1csc(C(F)(F)F)c1` [Example 230, N-((6-methoxy-1,2-dimethyl-1H-benzimidazol-7-yl)methyl)-5-(trifluoromethyl)-thiophene-3-carboxamide], the figure is 82%; as for `COc1ccc2nc(C)n(C)c2c1CNC(=O)c1ccc(C(F)(F)F)s1` [Example 231, N-((6-methoxy-1,2-dimethyl-lH-benzimidazol-7-yl)methyl)-5-(trifluoromethyl)-thiophene-2-carboxamide], 73%; as for `COc1ccc2nc(C)n(C)c2c1CNC(=O)c1csc(C(F)F)c1` [Example 232, 5-(difluoromethyl)-N-((6-methoxy-1,2-dimethyl-lH-benzimidazol-7-yl)methyl)thiophene-3-carboxamide], 64%.
Under `COc1ccc2nc(C)n(C)c2c1CNC(=O)c1ccc(OC(F)(F)F)nc1` [Example 233, N-((6-methoxy-1,2-dimethyl-lH-benzimidazol-7-yl)methyl)-6-(trifluoromethoxy)-nicotinamide] stands 72%; under `CCOc1ncc(C(=O)NCc2c(OC)ccc3nc(C)n(C)c23)cc1F` [Example 234, 6-ethoxy-5-fluoro-N-((6-methoxy-1,2-dimethyl-lH-benzimidazol-7-yl)methyl)nicotinamide], 73%; under `COc1ccc2nc(C)n(C)c2c1CNC(=O)c1cnc(OC)c(F)c1` [Example 235, 5-fluoro-6-methoxy-N-((6-methoxy-1,2-dimethyl-1H-benzimidazol-7-yl)methyl)nicotinamide], 57%.
Regarding `COc1ccc2nc(C)n(C)c2c1CNC(=O)c1ccc(C(F)(F)F)c(F)c1` [Example 236, 3-fluoro-N-((6-methoxy-1,2-dimethyl-1H-benzimidazol-7-yl)methyl)-4-(trifluoromethyl)-benzamide], the inhibition at 10 µM turned out to be 59%.
As for `COc1ccc2nc(C)n(C)c2c1CNC(=O)c1ccc(C(F)(F)F)cc1` [Example 237, N-((6-methoxy-1,2-dimethyl-1H-benzimidazol-7-yl)methyl)-4-(trifluoromethyl)-benzamide], the figure is 68%; as for `COc1ccc2nc(C)n(C)c2c1CNC(=O)c1ccc(C)c(F)c1` [Example 238, 3-fluoro-N-((6-methoxy-1,2-dimethyl-1H-benzimidazol-7-yl)methyl)-4-methylbenzamide], 61%.
As for `COc1ccc2nc(C)n(C)c2c1CNC(=O)c1cc(F)c(C)c(F)c1` [Example 239, 3,5-difluoro-N-((6-methoxy-1,2-dimethyl-1H-benzimidazol-7-yl)methyl)-4-methylbenzamide], the figure is 60%.

(Values after patent publication US11230541B2, “Heterocyclic compound” (Takeda Pharmaceutical Company Limited, priority 2017, dated 2022).)
